According to publication PMC9572083, “Hybrids of 1,4-Quinone with Quinoline Derivatives: Synthesis, Biological Activity, and Molecular Docking with DT-Diaphorase (NQO1)” (Molecules, 2022):

How the values were obtained:
Colo-829 cells = assay: Cytotoxic activity, WST-1 assay, melanoma Colo-829; assay type: cell-based, human; conditions: for SI (IC50 HFF-1/IC50 cancer line) Colo-829: HFF-1 vs Colo-829; for IC50: Homo sapiens, melanoma Colo-829, 72 h, WST-1
In short: (§1)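 Cells seeded at 5 × 10^4/well in DMEM with 10% FCS at 37 °C, 5% CO2, and exposed 72 h to compounds at 1–100 µg/mL. WST-1 formazan read at 450 nm. IC50 is the µM concentration giving 50% growth inhibition, with Neg. meaning above 30 µM; mean of ≥3 independent triplicate experiments.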

T47D cells = assay: Cytotoxic activity, WST-1 assay, breast cancer T47D; assay type: cell-based, human; conditions: for SI (IC50 HFF-1/IC50 cancer line) T47D: HFF-1 vs T47D; for IC50: Homo sapiens, breast cancer T47D, 72 h, WST-1
In short: as §1

[1] = target: T1, NQO1 (DT-diaphorase, EC 1.6.5.5, human recombinant) (Homo sapiens, UniProt P15559); assay: NQO1 substrate NADPH recycling enzymatic assay; assay type: biochemical; conditions: compound 10 µmol/L, pH 7.4, 25 °C, absorbance at 340 nm
T1 construct: purchased Sigma-Aldrich
T1 sequence (P15559 whole entry): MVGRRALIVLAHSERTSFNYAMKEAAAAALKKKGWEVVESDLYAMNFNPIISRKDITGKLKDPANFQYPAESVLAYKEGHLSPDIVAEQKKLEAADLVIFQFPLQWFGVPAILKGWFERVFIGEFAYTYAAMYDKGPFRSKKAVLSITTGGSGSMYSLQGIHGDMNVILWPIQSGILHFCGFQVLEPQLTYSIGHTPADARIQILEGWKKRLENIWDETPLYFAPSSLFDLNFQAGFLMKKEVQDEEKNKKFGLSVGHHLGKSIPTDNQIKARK
In short: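 Human recombinant NQO1 (1.4 µg/mL) in 50 mmol/L potassium phosphate, pH 7.4, was tested with compounds at 10 µmol/L. NADPH was dispensed to start the reaction, and A340 was read every 10 s for 5 min at 25 °C. Initial slopes were expressed as µmol NADPH/µmol NQO1/min against compound-free reactions.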

SK-OV-3 cells = assay: Cytotoxic activity, WST-1 assay, ovarian cancer SK-OV-3; assay type: cell-based, human; conditions: for SI (IC50 HFF-1/IC50 cancer line) SK-OV-3: HFF-1 vs SK-OV-3; for IC50: Homo sapiens, ovarian cancer SK-OV-3, 72 h, WST-1
In short: as §1

MCF-7 cells = assay: Cytotoxic activity, WST-1 assay, breast cancer MCF-7; assay type: cell-based, human; conditions: for SI (IC50 HFF-1/IC50 cancer line) MCF-7: HFF-1 vs MCF-7; for IC50: Homo sapiens, MCF7, breast cancer MCF-7, 72 h, WST-1
In short: as §1

HFF-1 cells = assay: Cytotoxic activity, WST-1 assay, normal fibroblasts HFF-1; assay type: cell-based; conditions: Homo sapiens, normal fibroblasts HFF-1, 72 h
In short: as §1

A549 cells = assay: Cytotoxic activity, WST-1 assay, lung cancer A549; assay type: cell-based, human; conditions: for SI (IC50 HFF-1/IC50 cancer line) A549: HFF-1 vs A549; for IC50: Homo sapiens, lung cancer A549, 72 h, WST-1
In short: as §1

MDA-MB-231 cells = assay: Cytotoxic activity, WST-1 assay, breast cancer MDA-MB-231; assay type: cell-based, human; conditions: for SI (IC50 HFF-1/IC50 cancer line) MDA-MB-231: HFF-1 vs MDA-MB-231; for IC50: Homo sapiens, breast cancer MDA-MB-231, 72 h, WST-1
In short: as §1

TP53 = assay: Transcriptional activity of TP53 gene in A549 cells (RT-QPCR); assay type: cell-based, human; conditions: 24 h, concentration equal to half of IC50
Experimental: (§2) The mechanism of anticancer activity was determined by detection of transcriptional activity of the genes encoding a proliferation marker (H3 histone), cell cycle regulators (p53 and p21), and the mitochondrial apoptosis pathway (BCL-2 and BAX) (Figure 3a–d). The derivatives 11b, 12b, 13b, and 14b were selected for this study.
(§3) Transcriptional activity of genes (TP53, CDKN1A, BAX, and BCL-2) was rated by real-time RT-QPCR using Opticon™ DNA Engine system (MJ Research, Watertown, NY, USA) and QuantTect® SYBR® Green RT-PCR Kit (Qiagen, Hilden, Germany). Cultured cells were incubated with tested compounds for 24 h. RNA was extracted using Quick-RNA™ MiniPrep kit columns (Zymo Research, Irvine, CA, USA). The extracted RNA was assessed qualitatively and quantitatively. The amount and purity of the total RNA in extracts were determined spectrophotometrically (HP8452A apparatus, Hewlett Packard, Waldbronn, Germany).

H3 histone gene = assay: Transcriptional activity of H3 histone gene in A549 cells (RT-QPCR); assay type: cell-based, human; conditions: 24 h, concentration equal to half of IC50
Experimental: as §2, §3

CDKN1A = assay: Transcriptional activity of CDKN1A gene in A549 cells (RT-QPCR); assay type: cell-based, human; conditions: 24 h, concentration equal to half of IC50
Experimental: as §2, §3

Compound | SI (IC50 HFF-1/IC50 cancer line) Colo-829 (Colo-829 cells) | IC50 (Colo-829 cells) [µM] | SI (IC50 HFF-1/IC50 cancer line) T47D (T47D cells) | IC50 (T47D cells) [µM] | melting point [°C] | NQO1 activity (enzymatic conversion rate) [1] [µmol NADPH/µmol NQO1/min] | SI (IC50 HFF-1/IC50 cancer line) SK-OV-3 (SK-OV-3 cells) | IC50 (SK-OV-3 cells) [µM] | SI (IC50 HFF-1/IC50 cancer line) MCF-7 (MCF-7 cells) | IC50 (MCF-7 cells) [µM] | IC50 (HFF-1 cells) [µM] | SI (IC50 HFF-1/IC50 cancer line) A549 (A549 cells) | IC50 (A549 cells) [µM] | SI (IC50 HFF-1/IC50 cancer line) MDA-MB-231 (MDA-MB-231 cells) | IC50 (MDA-MB-231 cells) [µM] | TP53 gene expression (TP53) | Number of mRNA copies of the histone H3 gene (H3 histone gene) | CDKN1A expression (copies of mRNA) (CDKN1A)
Cc1ccc2c(n1)C(=O)C(Oc1cccc3ccc(C)nc13)=C(Cl)C2=O [Compound 12b, 6-chloro-2-methyl-7-[(2-methylquinolin-8-yl)oxy]quinoline-5,8-dione] | 6.01 | 1.69 ± 0.08 | 5.34 | 1.9 ± 0.23 | 130 to 132 | 1437 ± 42 | 6.81 | 1.49 ± 0.21 | 5.70 | 1.78 ± 0.03 | 10.2 ± 1.33 | 7.10 | 1.43 ± 0.06 | 6.46 | 1.57 ± 0.19 | significant increase | – | –
Cc1ccc2cccc(OC3=C(Cl)C(=O)c4cccnc4C3=O)c2n1 [Compound 11b, 6-chloro-7-[(2-methylquinolin-8-yl)oxy]quinoline-5,8-dione] | 13.56 | 1.92 ± 0.11 | 10.76 | 2.42 ± 0.13 | 110 to 112 | 1294 ± 51 | 15.40 | 1.69 ± 0.03 | 12.34 | 2.11 ± 0.08 | 26.1 ± 1.02 | 14.62 | 1.78 ± 0.21 | 15.87 | 1.64 ± 0.15 | significant increase | – | –
Cc1ccc2cccc(OC3=C(Cl)C(=O)c4ccncc4C3=O)c2n1 [Compound 13b, 6-chloro-7-[(2-methylquinolin-8-yl)oxy]isoquinoline-5,8-dione] | 66.77 | 0.39 ± 0.11 | 20.19 | 1.29 ± 0.03 | 110 to 112 | 1143 ± 36 | 53.14 | 0.49 ± 0.05 | 42.69 | 0.61 ± 0.09 | 26 ± 1.6 | 45.68 | 0.57 ± 0.02 | 236.73 | 0.11 ± 0.01 | significant increase | reduce the amount of mRNA copies by half | highest increase
O=Cc1ccc2cccc(OC3=C(Cl)C(=O)c4ccccc4C3=O)c2n1 [Compound 14c, 8-[(3-chloro-1,4-dioxo-1,4-dihydronaphthalen-2-yl)oxy]quinoline-2-carbaldehyde] | – | > 30 | 11.09 | 1.62 ± 0.21 | 131 to 133 | 550 ± 62 | 71.84 | 0.25 ± 0.06 | – | > 30 | 18 ± 1.75 | 43.80 | 0.41 ± 0.06 | 0.71 | 25.1 ± 0.97 | – | – | –
O=C1C(Cl)=C(Oc2cccc3ccc(Cl)nc23)C(=O)c2ccccc21 [Compound 14d, 2-chloro-3-[(2-chloroquinolin-8-yl)oxy]naphthalene-1,4-dione] | 0.80 | 18 ± 2.01 | – | > 30 | 101 to 103 | 1001 ± 43 | 1.01 | 14.1 ± 0.52 | 1.23 | 11.7 ± 1.34 | 14.3 ± 1.23 | 1.76 | 8.13 ± 1.02 | 6.99 | 2.05 ± 0.35 | – | – | –
Cc1ccc2cccc(OC3=C(Cl)C(=O)c4ccccc4C3=O)c2n1 [Compound 14b, 2-chloro-3-[(2-methylquinolin-8-yl)oxy]naphthalene-1,4-dione] | 0.74 | 15 ± 1.03 | 0.50 | 22.2 ± 1.03 | 100 to 102 | 1260 ± 15 | 0.66 | 16.8 ± 0.59 | 0.68 | 16.3 ± 1.08 | 11.1 ± 1.62 | 5.30 | 2.1 ± 0.29 | 0.58 | 19.2 ± 0.62 | slight increase | reduce the amount of mRNA copies by half | slight effect
